Source: ChEMBL document CHEMBL1201862, “PubChem BioAssay data set” (2004)
Calls of active or inactive are those of the source. For most assays here, no stated cut-off is given here; in the data, actives have a measured EC50 and inactives only a lower limit.

Key:
[1] = target: Cytochrome P450 2C9 (Homo sapiens, UniProt P11712)
[2] = target: T1, Replicative DNA helicase DnaB (Mycobacterium tuberculosis, UniProt P9WMR3); assay: DnaB intein splicing inhibitors, dose response, biochemical, cell-free fluorescence (AID 449749); type: functional
T1 sequence (P9WMR3 whole entry): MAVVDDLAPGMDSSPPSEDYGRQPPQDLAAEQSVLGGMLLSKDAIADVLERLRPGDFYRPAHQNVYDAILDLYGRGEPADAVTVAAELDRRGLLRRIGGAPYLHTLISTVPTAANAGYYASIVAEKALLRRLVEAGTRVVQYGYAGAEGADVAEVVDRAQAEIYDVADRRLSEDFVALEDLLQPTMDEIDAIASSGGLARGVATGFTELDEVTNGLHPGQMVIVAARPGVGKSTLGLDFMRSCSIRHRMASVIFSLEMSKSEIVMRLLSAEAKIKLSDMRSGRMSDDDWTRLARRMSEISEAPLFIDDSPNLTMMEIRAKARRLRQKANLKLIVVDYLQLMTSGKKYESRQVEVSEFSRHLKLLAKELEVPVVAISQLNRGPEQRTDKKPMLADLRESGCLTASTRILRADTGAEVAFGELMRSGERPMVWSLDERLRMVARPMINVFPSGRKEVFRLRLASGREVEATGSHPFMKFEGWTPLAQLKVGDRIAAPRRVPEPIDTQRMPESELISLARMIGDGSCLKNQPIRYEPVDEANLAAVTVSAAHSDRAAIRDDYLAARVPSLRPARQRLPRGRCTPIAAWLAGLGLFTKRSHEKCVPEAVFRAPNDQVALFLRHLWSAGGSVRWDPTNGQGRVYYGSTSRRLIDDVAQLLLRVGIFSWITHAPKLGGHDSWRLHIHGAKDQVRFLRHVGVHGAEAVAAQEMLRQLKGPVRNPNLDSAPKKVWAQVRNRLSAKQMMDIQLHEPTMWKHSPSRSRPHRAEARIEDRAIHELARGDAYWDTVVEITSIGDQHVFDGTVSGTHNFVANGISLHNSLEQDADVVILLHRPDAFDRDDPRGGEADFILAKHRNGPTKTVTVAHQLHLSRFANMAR

[3] = target: T2, Protein RecA (Mycobacterium tuberculosis, UniProt P9WHJ3); assay: Fluorescence Cell-Free Homogeneous Dose Retest to Identify Inhibitors of RecA-Intein Splicing Activity. [Related pubchem assays (depositor defined):AID2097, AID2223, AID489010, AID492950]; type: functional
T2 sequence (P9WHJ3 whole entry): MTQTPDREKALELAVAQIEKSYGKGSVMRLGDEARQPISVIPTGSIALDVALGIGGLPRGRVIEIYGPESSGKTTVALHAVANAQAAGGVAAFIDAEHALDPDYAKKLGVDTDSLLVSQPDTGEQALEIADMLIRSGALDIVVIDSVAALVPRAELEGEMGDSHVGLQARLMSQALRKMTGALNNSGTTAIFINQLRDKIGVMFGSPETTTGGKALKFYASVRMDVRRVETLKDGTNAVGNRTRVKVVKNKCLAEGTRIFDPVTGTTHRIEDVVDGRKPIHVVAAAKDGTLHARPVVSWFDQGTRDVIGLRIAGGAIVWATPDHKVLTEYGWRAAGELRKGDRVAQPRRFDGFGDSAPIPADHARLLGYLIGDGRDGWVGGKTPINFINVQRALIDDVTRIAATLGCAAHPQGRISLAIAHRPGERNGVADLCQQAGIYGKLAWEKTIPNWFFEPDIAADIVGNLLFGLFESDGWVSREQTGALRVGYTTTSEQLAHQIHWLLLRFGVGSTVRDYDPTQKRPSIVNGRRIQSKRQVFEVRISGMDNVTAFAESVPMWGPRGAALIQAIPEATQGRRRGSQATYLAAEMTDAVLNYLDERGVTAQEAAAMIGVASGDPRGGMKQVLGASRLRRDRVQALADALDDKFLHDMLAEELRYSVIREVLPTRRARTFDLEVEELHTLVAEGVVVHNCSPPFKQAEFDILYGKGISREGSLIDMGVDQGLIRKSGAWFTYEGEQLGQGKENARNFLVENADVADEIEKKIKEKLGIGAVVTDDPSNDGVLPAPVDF

[4] = inhibitors of intracellular T. cruzi replication, confirmation, NIH3T3 host cells, beta-gal luminescence (AID 2044); type: functional, cell-based;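 further: intracellular parasites grown in NIH/3T3 mouse fibroblasts as host cells; luminescent beta-galactosidase reporter signal from transgenic T. cruzi replicating inside host cells; inhibitors lower the luminescence signal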
[5] = cytotoxicity toward NIH3T3 fibroblasts, dose response, counter-screen, cell-based, ATP luminescence, mouse fibroblasts (AID 2010); type: functional;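 further: cells exposed to compound for about 90 hours before reading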
[6] = test system: Streptococcus; assay: Group A Streptococcus viability loss, dose response, counter-screen for streptokinase expression inhibitor project, luminescence, BacTiterGlo (AID 1915); type: functional, organism-based;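 further: potency for reduction of bacterial viability or growth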
[7] = test system: Streptococcus sp. 'group A'; assay: growth inhibition of control SK(-) GAS strain, dose response, counter-screen for streptokinase expression inhibitor project, luminescence, kanamycin, BacTiterGlo, confirmation (AID 1900); type: functional, organism-based

Cytochrome P450 2C9, sequence (P11712 whole entry): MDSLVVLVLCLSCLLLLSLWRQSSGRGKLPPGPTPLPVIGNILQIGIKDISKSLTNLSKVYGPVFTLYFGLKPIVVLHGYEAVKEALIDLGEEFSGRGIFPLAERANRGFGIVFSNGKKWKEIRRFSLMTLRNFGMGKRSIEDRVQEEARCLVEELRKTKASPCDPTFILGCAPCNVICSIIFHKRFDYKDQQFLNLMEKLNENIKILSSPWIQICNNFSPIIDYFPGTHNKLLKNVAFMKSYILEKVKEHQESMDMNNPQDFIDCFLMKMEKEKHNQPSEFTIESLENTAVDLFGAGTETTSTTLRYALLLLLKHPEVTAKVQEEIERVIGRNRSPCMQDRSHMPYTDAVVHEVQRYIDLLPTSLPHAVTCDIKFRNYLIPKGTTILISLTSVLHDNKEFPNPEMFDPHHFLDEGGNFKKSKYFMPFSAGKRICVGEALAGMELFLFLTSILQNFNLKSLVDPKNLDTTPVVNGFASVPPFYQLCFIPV

CN(C)[C@@H]1C(O)=C(C(N)=O)C(=O)[C@]2(O)C(O)=C3C(=O)c4c(O)cccc4[C@@](C)(O)[C@H]3[C@H](O)[C@@H]12
AC50 [1]: 5.01 µM (inconclusive)

CN1CCN(C2=C(Cl)C(=O)N(c3ccc(Cl)cc3)C2=O)CC1
AC50 [2]: 1.07 µM (active) | EC50 [3]: 0.247 µM (active)

Cn1cc(C(=O)c2ccc(Cl)cc2Cl)cc1C(=O)O
AC50 [1]: 14.1 µM (inconclusive)

FC(F)(F)c1cccc(Oc2nc(-c3ccccc3)nnc2C(F)(F)F)c1
AC50 [2]: 2.06 µM (active) | EC50 [3]: 0.76 µM (active)

O=c1c2c3c(sc2n(CCN2CCCC2)c(=O)n1Cc1ccco1)CCCCC3
EC50 [4]: 0.331 µM (active) | EC50 [5]: > 30 µM (not active)

Cc1ccc(N=C(S)c2nc3ccccc3[nH]2)c(C)c1
EC50 [6]: > 150 µM (not active) | EC50 [7]: 2.12 µM (active)

COc1cccc(-c2cncnc2NCc2ccccc2OC)c1
AC50 [1]: 0.631 µM (inconclusive)

CCOC(=O)CN1N=C(/C=C/c2ccc(C)cc2)CCC1=O
AC50 [1]: 28.2 µM (inconclusive)

N#C/C(=C/N1CCOCC1)c1ccccc1
AC50 [1]: 28.2 µM (inconclusive)

CC(O)CNc1nc2sc3c(c2c(=O)n1CCc1ccccc1)CCCCC3 (stereo not drawn)
EC50 [4]: 1.89 µM (active) | EC50 [5]: > 60 µM (not active)

O=C(NCc1ccc2c(c1)OCO2)c1ccc(N2CCCCCC2)c([N+](=O)[O-])c1
EC50 [4]: 0.709 µM (active) | EC50 [5]: > 60 µM (not active)

Cn1[nH]c(CSc2ccc(Cl)cc2)cc1=O
AC50 [2]: 20.2 µM (active) | EC50 [3]: 10 µM (active)

O=C(NC1CCCC1)C(c1ccncc1)N(Cc1ccco1)C(=O)c1ccc(-c2ccccc2)[nH]1 (stereo not drawn)
EC50 [4]: 0.641 µM (active) | EC50 [5]: > 30 µM (not active)

O=C(CC[S+]([O-])NCc1ccccc1)NCc1ccccc1 (stereo not drawn)
AC50 [2]: > 380 µM (inactive) | EC50 [3]: > 380 µM (inactive)

CC1=NN(Cc2ccccc2)C(=O)C1C(c1ccncc1)C(C#N)C#N (stereo not drawn)
AC50 [2]: 9.46 µM (active) | EC50 [3]: 3.52 µM (active)

O=C(Nc1nc(-c2ccco2)c(-c2ccco2)s1)c1cnccn1
EC50 [4]: 5.79 µM (active) | EC50 [5]: 8.94 µM (active)

CCN1C(=O)c2c(C)nc3ccccc3c2C1=O
AC50 [2]: 43.4 µM (active) | EC50 [3]: 0.781 µM (active)

CCOc1ccccc1Oc1coc2cc(OC(=O)c3ccco3)ccc2c1=O
AC50 [2]: > 380 µM (inactive) | EC50 [3]: 35.7 µM (active)

N#CC1=C(N)Oc2[nH]nc(-c3cccs3)c2C1c1cccnc1 (stereo not drawn)
EC50 [3]: > 380 µM (inactive)

CN(C)CCC1CCN(c2cc(C#N)c(C#N)cc2[N+](=O)[O-])CC1
EC50 [4]: 0.345 µM (active) | EC50 [5]: > 60 µM (not active)

Cc1cc(C)cc(C(=O)Nc2nc3ccccc3[nH]2)c1
EC50 [6]: 7.31 µM (active) | EC50 [7]: 10.6 µM (active)

CCC(=O)N/N=C(\C)CC(=O)Nc1cccc([N+](=O)[O-])c1
AC50 [2]: 23.4 µM (active) | EC50 [3]: 2.36 µM (active)

CC1CN(c2nc3ccccc3nc2C(C#N)C(=O)OC2CCCCC2)CC(C)O1 (stereo not drawn)
EC50 [4]: 1.15 µM (active) | EC50 [5]: 10.6 µM (active)

Cc1nc(Nc2nc(O)cc(-c3ccccc3)n2)nc2ccccc12
EC50 [6]: 8.02 µM (active) | EC50 [7]: 4.95 µM (active)

Cc1ccn2c(Nc3ccccc3C)c(-c3ccncc3)nc2c1
EC50 [4]: 0.56 µM (active) | EC50 [5]: > 60 µM (not active)

CCOC(=O)C1(Cc2ccccc2)CCN(Cc2cnc(N3CCOCC3)s2)CC1
EC50 [4]: 0.644 µM (active) | EC50 [5]: > 60 µM (inconclusive)

O=C(O)CCc1ccc(-c2ccccc2)[nH]1
AC50 [1]: 3.16 µM (inconclusive)

COc1ccc([N+](=O)[O-])cc1NC(=O)COC(=O)C1CC1
EC50 [4]: > 60 µM (not active) | EC50 [5]: > 60 µM (inconclusive)

O=[N+]([O-])c1ccc(N2CCN(S(=O)(=O)c3ccc(Cl)c(Cl)c3)CC2)cc1NCCN1CCOCC1
EC50 [4]: 1.68 µM (active) | EC50 [5]: > 60 µM (not active)

COc1cc(/C=C/C(=O)OCC(=O)Nc2ccccc2Sc2ccc(Cl)cc2)ccc1O
AC50 [2]: > 380 µM (inactive) | EC50 [3]: 3.62 µM (active)

C/C(CC(=O)Nc1ccccn1)=N\NC(=O)Cc1cccc2ccccc12
AC50 [2]: 3.54 µM (active) | EC50 [3]: 2.73 µM (active)

O=C(NC(=S)NNC(=O)[C@H]1C[C@@H]1c1ccccc1)c1ccc(F)cc1
EC50 [6]: 1.87 µM (active) | EC50 [7]: 0.775 µM (active)

COc1ccc(Nc2ncc3nc(-c4cccs4)c(=O)n(Cc4cccc(OC)c4)c3n2)cc1
AC50 [1]: 39.8 µM (inconclusive)

O=C(Cn1cnc([N+](=O)[O-])n1)NCc1ccccc1
EC50 [4]: 0.479 µM (active) | EC50 [5]: > 60 µM (not active)

CCC1C(=O)N(c2nc(C)cc(C)n2)N=C1C (stereo not drawn)
AC50 [2]: 8.34 µM (active) | EC50 [3]: 3.3 µM (active)

Cc1cc(N2C(=O)C(O)=C(C(=O)c3cc4ccccc4o3)C2c2cccc(Cl)c2)no1 (stereo not drawn)
EC50 [6]: 5.36 µM (active) | EC50 [7]: 2.09 µM (active)

O=C(N/N=C/c1cc(Br)cc([N+](=O)[O-])c1O)c1ccc(NC(=O)c2ccc(F)cc2)cc1
EC50 [6]: 6.54 µM (active) | EC50 [7]: 2.34 µM (active)

CCNc1ncc2nc(-c3cn(C)c4ccccc34)c(=O)n(Cc3ccc(F)cc3)c2n1
AC50 [1]: 25.1 µM (inconclusive)

CC(C)c1ccc(C(=O)NC(=S)Nc2ccc3[nH]c(O)nc3c2)cc1
EC50 [6]: 53.6 µM (active) | EC50 [7]: 10.2 µM (active)

Cc1nc2cnc(OCc3ccccc3)nc2n(Cc2ccc(F)cc2)c1=O
AC50 [1]: 10 µM (inconclusive)

Cc1cc(C)c(C#N)c(SCc2nnc(-c3ccccc3[N+](=O)[O-])o2)n1
EC50 [4]: 2.2 µM (active) | EC50 [5]: > 60 µM (not active)

Cc1ccc(SCc2ccc(C(=O)Nc3cccc([N+](=O)[O-])c3C)cc2)cc1
EC50 [4]: 1.67 µM (active) | EC50 [5]: > 30 µM (not active)

COc1ccc(C(=O)CSc2nc(O)cc(C(F)(F)F)c2C#N)cc1
EC50 [6]: 15.4 µM (active) | EC50 [7]: 3.58 µM (active)

O=C(CN(c1ccc(Br)cc1)S(=O)(=O)c1ccc(Cl)c([N+](=O)[O-])c1)NCCc1ccccc1
EC50 [4]: 0.592 µM (active) | EC50 [5]: > 60 µM (not active)
